These results are taken from US20210113715A1, “TARGETED NANOPARTICLES FOR DIAGNOSING, DETECTING AND TREATING CANCER” (CEDARS-SINAI MEDICAL CENTER, priority 2018, published 2021).

For data set [1], the system named is OATP transporter (U87 cells). Put plainly: Inhibition of HMC-FH uptake by pre-incubation with inhibitors. Type of data set: cell-based. The conditions noted are these: fluorescence microscopy and flow cytometry.
Source text: Next, we tested the ability of HMC-FH to target and internalize into various GBM cancer cell lines.
Another data set has as its system TMZ-resistant U87R cells. Put plainly: Transwell cell migration, U87R. Type of data set: cell-based. How it is done: After incubation, nonmigratory cells and media were washed from transwells, and those cells that migrated to the bottom of the filters were, fixed and stained and imaged using a fluorescence Microscope (Keyence BZ-X7 00). Representative images (5 fields) were taken of treatment (2 uM of each-BFA, HMC-FH and HMC-FH (BFA, DMSO) for quantification.

Data set [2] deals with intracranial U87 GBM tumors. Put plainly: Survival studies (Kaplan-Meier) of mice with intracranial U87 tumors. As to conditions: treated 14 days after tumor implantation, 3 umol drug/kg i.v. twice a week for three weeks, n=5. Type of data set: in vivo. How it is done:
A dose of 3 umol drug/kg, 22 mM Fe (FH) was administered i.v via tail vein injection twice a week for […].
(§1) A dose of 3 umol drug/kg, 22 mM Fe (FH) was administered i.v. via tail vein injection twice a week for three weeks.
as §1
HMC-FH(PXL) and HMC-FH(BFA) increase the survival of mice with GBM tumors. In these experiments, we injected mice (n=5) with intracranial U87 GBM tumors with HMC-FH encapsulated with either paclitaxel (PTX) or docetaxel (DXT). As control, we injected either PBS or the corresponding drug along at equal concentrations. In initial studies, treatment started “late”, 14 days after tumor implantation. […] In additional studies, treatment was started earlier, 5 days after injection, to find out if an early treatment would improve survival. Impressive results were obtained by injecting HMC-FH(PXL), 5 days after tumor implantation.
In initial animal studies using BFA and HMC-FH(BFA), we injected mice (n=5) with intracranial U87 GBM tumors with either BFA (dissolved in DMSO) or HMC-FH(BFA) in saline. In these studies, treatment started “late”, 14 days after tumor implantation. […] The ability of BFA to cross the BBB has not been studied or reported, to our knowledge. However, due to its poor solubility, it is advantageous to encapsulate BFA in HMC-FH.

Data set [3] deals with PC3 prostate cancer cells. Put plainly: Transwell cell migration, PC3. Type of data set: cell-based. As to conditions: PC3, 24 h at 37° C. How it is done: After incubation, nonmigratory cells and media were washed from transwells, and those cells that migrated to the bottom of the filters were, fixed and stained and imaged using a fluorescence Microscope. […] Quantification of the average number of cells per image that have migrated (FIG. 8C).

The subject of data set [4] is LNCaP prostate cancer cells. Put plainly: Transwell cell migration, LNCaP. The conditions noted are these: 24 h at 37° C. It counts as cell-based.
Data set [5] relates to intracranial U87MG tumors. As to conditions: mouse, in vivo.
Source text: Mouse brains were extracted from the mouse skull, and tumors visualized and resected from the healthy brain while recording using SIRIS.
The subject of data set [6] is human intracranial U87MG tumors. In words: HMC-FH(PTX) treatment of nude mice with intracranial U87MG tumors. It counts as in vivo. The conditions noted are these: six treatments, 1 mg HMC, 3 mg PTX and 4 mgFe/kg; treatment period 40 days after tumor inoculation. The procedure:
Brain MRI images of treated mice (FIG. 46A). […] Corresponding mice body weight measurements (FIG. 46D).
The HMC-FH(PTX) was next used to treat nude mice with human intracranial U87MG tumors. […] It is not until after the treatment period that tumors start developing in the HMC-FH(PTX) treated mice (FIG. 46B).

Entries after “also recorded” stand apart in the source; their conditions may differ.

With `O=CC[C@@H](O)[C@H](O)[C@H](O)CO` [2-deoxyglucose], the “effect of pre-incubation on HMC-FH uptake” value in data set [1] was “do not block the internalization”. The same measure, in the same setting: under `COC(=O)N[C@H](C(=O)N[C@@H](Cc1ccccc1)[C@@H](O)CN(Cc1ccc(-c2ccccn2)cc1)NC(=O)[C@@H](NC(=O)OC)C(C)(C)C)C(C)(C)C` [Atazanir] stands “uptake and cell associated fluorescence was reduced; also recorded: inhibits HMC-FH internalization”. Consider `C[C@H]1CCC/C=C/[C@@H]2C[C@H](O)C[C@H]2[C@H](O)/C=C/C(=O)O1` [BFA, Brefeldin A], for which the cell migration entry with TMZ-resistant U87R cells (U87R, 2 uM, 24 h) is given as “decreased migration”; in the data set with TMZ-resistant U87R cells (printed as U87 cells), “decrease cell migration”; in data set [3], “decreased migration”. In addition, the “survival, BFA formulations” value in data set [2] is recorded as “significantly longer than in the control mice; also recorded: enhanced mice survival”. Take `CC(=O)O[C@@]12CO[C@@H]1C[C@H](O)[C@@]1(C)C(=O)[C@H](O)C3=C(C)[C@@H](OC(=O)[C@H](O)[C@@H](NC(=O)OC(C)(C)C)c4ccccc4)C[C@@](O)([C@@H](OC(=O)c4ccccc4)[C@H]21)C3(C)C` [DXT, docetaxel]: the cell migration entry in data set [4] and in data set [3] was “decreased migration” throughout. Consider `CC1(C)C(/C=C/C=C/C=C/C=C2\N(CCCCS(=O)(=O)[O-])c3ccc4ccccc4c3C2(C)C)=[N+](CCCCS(=O)(=O)[O-])c2ccc3ccccc3c21.[Na+]` [ICG], for which the “fluorescent labeling / localization to tumor” value in data set [5] was “does not show tumor localization”.

In the case of `CC(=O)O[C@H]1C(=O)[C@@]2(C)[C@H]([C@H](OC(=O)c3ccccc3)[C@]3(O)C[C@H](OC(=O)[C@H](O)[C@@H](NC(=O)c4ccccc4)c4ccccc4)C(C)=C1C3(C)C)[C@]1(OC(C)=O)CO[C@@H]1C[C@@H]2O` [PTX, paclitaxel], the “tumor growth / tumor detection by MRI or histopathology” value in data set [6] is reported as “developed visible tumor”.
